{
  "source": "the supplement of paper PMC10307832",
  "assay_in_all_cases": "relative viability (nuclei count vs DMSO), 5 days (fraction); higher = more cells survive",
  "key": {"[1]": {"compound": "CC1CC(=O)N(C2=CN=C(N=C2N1C3CCCC3)NC4=C(C=C(C=C4)C(=O)NC5CCN(CC5)C)OC)C [NPK76-II-72-1] + CC(=O)c1c(C)c2cnc(Nc3ccc(N4CCNCC4)cn3)nc2n(C2CCCC2)c1=O [Palbociclib] (partner 0.5 µM)", "procedure,_shortened": "(§1)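 Cells from lung cancer lines were seeded into 1536-well plates and, one day later, dosed by pin tool. Treatments were either a single drug or a fixed dose of an anchor drug with five library-drug doses (not always all listed) in √10 steps. After 5 days, nuclei were stained in a one-step fixation (final 0.05% Triton X-100, 1% formaldehyde, 1 ug/ml Hoechst) and counted on 4× images, and relative viability is the treated-to-vehicle nuclei ratio, as the median of duplicate plates.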"}, "BI-2536 + Phenformin": {"compound": "CC[C@@H]1C(=O)N(C)c2cnc(Nc3ccc(C(=O)NC4CCN(C)CC4)cc3OC)nc2N1C1CCCC1 [BI-2536] + N=C(N)NC(=N)NCCc1ccccc1 [Phenformin] (partner 250 µM)", "procedure,_shortened": "as §1"}, "BI-2536 + Decitabine": {"compound": "CC[C@@H]1C(=O)N(C)c2cnc(Nc3ccc(C(=O)NC4CCN(C)CC4)cc3OC)nc2N1C1CCCC1 [BI-2536] + Nc1ncn([C@H]2C[C@H](O)[C@@H](CO)O2)c(=O)n1 [Decitabine] (partner 2 µM)", "procedure,_shortened": "as §1"}, "BI-2536 + Vorinostat": {"compound": "CC[C@@H]1C(=O)N(C)c2cnc(Nc3ccc(C(=O)NC4CCN(C)CC4)cc3OC)nc2N1C1CCCC1 [BI-2536] + O=C(CCCCCCC(=O)Nc1ccccc1)NO [Vorinostat] (partner 1 µM)", "procedure,_shortened": "as §1"}},
  "data": [
    {"cell line": "UMC-11", "values": [
      {"measurement": "relative viability", "setting": "[1]; first compound 0.01 µM", "value": 0.301},
      {"measurement": "relative viability", "setting": "[1]; first compound 0.03162 µM", "value": 0.326},
      {"measurement": "relative viability", "setting": "[1]; first compound 0.1 µM", "value": 0.265},
      {"measurement": "relative viability", "setting": "[1]; first compound 0.3162 µM", "value": 0.355},
      {"measurement": "relative viability", "setting": "[1]; first compound 1 µM", "value": 0.355},
      {"measurement": "relative viability", "setting": "BI-2536 + Phenformin; first compound 0.01 µM", "value": 0.286},
      {"measurement": "relative viability", "setting": "BI-2536 + Phenformin; first compound 0.03162 µM", "value": 0.233},
      {"measurement": "relative viability", "setting": "BI-2536 + Phenformin; first compound 0.1 µM", "value": 0.177},
      {"measurement": "relative viability", "setting": "BI-2536 + Phenformin; first compound 0.3162 µM", "value": 0.192},
      {"measurement": "relative viability", "setting": "BI-2536 + Phenformin; first compound 1 µM", "value": 0.175},
      {"measurement": "relative viability", "setting": "BI-2536 + Decitabine; first compound 0.01 µM", "value": 0.568},
      {"measurement": "relative viability", "setting": "BI-2536 + Decitabine; first compound 0.03162 µM", "value": 0.306},
      {"measurement": "relative viability", "setting": "BI-2536 + Decitabine; first compound 0.1 µM", "value": 0.232},
      {"measurement": "relative viability", "setting": "BI-2536 + Decitabine; first compound 0.3162 µM", "value": 0.265},
      {"measurement": "relative viability", "setting": "BI-2536 + Decitabine; first compound 1 µM", "value": 0.28},
      {"measurement": "relative viability", "setting": "BI-2536 + Vorinostat; first compound 0.01 µM", "value": 0.343},
      {"measurement": "relative viability", "setting": "BI-2536 + Vorinostat; first compound 0.03162 µM", "value": 0.315},
      {"measurement": "relative viability", "setting": "BI-2536 + Vorinostat; first compound 0.1 µM", "value": 0.187},
      {"measurement": "relative viability", "setting": "BI-2536 + Vorinostat; first compound 0.3162 µM", "value": 0.18},
      {"measurement": "relative viability", "setting": "BI-2536 + Vorinostat; first compound 1 µM", "value": 0.145}
    ]}
  ]
}
